Test results from paper PMC6979384, “Characterization of the plant homeodomain (PHD) reader family for their histone tail interactions” (Epigenetics & Chromatin, 2020).

Assays:
Assay in all cases: Histone peptide microarray
Format in all cases: binding, human
[1] = system: AIRE (PP); details: AIRE (PP), GST-tagged; arrays performed twice, n of 4
Description: (§1) To more comprehensively define the histone interactions of the 31 PHD readers identified from the domain microarray analyses, we probed each on an alternate microarray platform containing a library of 293 synthetic histone peptides with single or combinatorial PTMs (Additional file 2: Figure S4 and Additional file 3: Table S2).
(§2) The 31 GST-tagged PHD readers identified in the PHD finger domain array were expressed and purified as previously. Histone peptide arrays and peptide pulldown assays were conducted as recently described (specifically, the optimized protocol from Petell et al. for the former).
(§3) Supplementary file 13072_2020_328_MOESM3_ESM.xlsx: Additional file 3: Table S2. […] Excel Tab Peptide List is a compiled list of the entire 293 histone peptide library with amino acid sequence ranges. […] Each number corresponds to the peptide number designated in Peptide List. Excel Tab Average Signals is a compiled set of binding data: chromatin reader at 0.5 μM vs. entire 293 peptide library. Data is presented as the average and standard deviation of 4 replicates. The average signals are colored to indicate signal intensity with green being strong and white being weak/low. […] Key: red= stronger relative binding; blue = weaker relative binding. Excel Tab Array info summary is a table summarizing the domains, sequence coverage, array signal range, and noise for each of the GST-tagged readers assayed on the peptide microarrays.

[2] = system: ING4; details: ING4, GST-tagged; arrays performed twice, n of 4
Description: as §1, §2, §3

[3] = system: PHRF1 (RP); details: PHRF1 (RP), GST-tagged; arrays performed twice, n of 4
Description: as §1, §2, §3

[4] = system: CHD5 (PPCC); details: CHD5 (PPCC), GST-tagged; arrays performed twice, n of 4
Description: as §1, §2, §3

[5] = system: TRIM66 (PB); details: TRIM66 (PB), GST-tagged; arrays performed twice, n of 4
Description: as §1, §2, §3

[6] = system: DIDO1; details: DIDO1, GST-tagged; arrays performed twice, n of 4
Description: as §1, §2, §3

[7] = system: PHF8; details: PHF8, GST-tagged; arrays performed twice, n of 4
Description: as §1, §2, §3

[8] = system: PHF2; details: PHF2, GST-tagged; arrays performed twice, n of 4
Description: as §1, §2, §3

[9] = system: KDM5A (3); details: KDM5A (3), GST-tagged; arrays performed twice, n of 4
Description: as §1, §2, §3

[10] = system: KDM5A (1); details: KDM5A (1), GST-tagged; arrays performed twice, n of 4
Description: as §1, §2, §3

[11] = system: KDM5B (3); details: KDM5B (3), GST-tagged; arrays performed twice, n of 4
Description: as §1, §2, §3

[12] = system: ING1; details: ING1, GST-tagged; arrays performed twice, n of 4
Description: as §1, §2, §3

[13] = system: PHF23; details: PHF23, GST-tagged; arrays performed twice, n of 4
Description: as §1, §2, §3

[14] = system: RAG2; details: RAG2, GST-tagged; arrays performed twice, n of 4
Description: as §1, §2, §3

[15] = system: PHF21A; details: PHF21A, GST-tagged; arrays performed twice, n of 4
Description: as §1, §2, §3

[16] = system: BPTF (PB); details: BPTF (PB), GST-tagged; arrays performed twice, n of 4
Description: as §1, §2, §3

[17] = system: KDM7A; details: KDM7A, GST-tagged; arrays performed twice, n of 4
Description: as §1, §2, §3

[18] = system: BAZ2B; details: BAZ2B, GST-tagged; arrays performed twice, n of 4
Description: as §1, §2, §3

[19] = system: KDM4C (TTP); details: KDM4C (TTP), GST-tagged; arrays performed twice, n of 4
Description: as §1, §2, §3

[20] = system: CHD4 (PPCC); details: CHD4 (PPCC), GST-tagged; arrays performed twice, n of 4
Description: as §1, §2, §3

[21] = system: SP140L; details: SP140L, GST-tagged; arrays performed twice, n of 4
Description: as §1, §2, §3

[22] = system: PHF13; details: PHF13, GST-tagged; arrays performed twice, n of 4
Description: as §1, §2, §3

[23] = system: DPF2 (PPC2W2); details: DPF2 (PPC2W2), GST-tagged; arrays performed twice, n of 4
Description: as §1, §2, §3

[24] = system: MORC3 (CW); details: MORC3 (CW), GST-tagged; arrays performed twice, n of 4
Description: as §1, §2, §3

[25] = system: ING5; details: ING5, GST-tagged; arrays performed twice, n of 4
Description: as §1, §2, §3

[26] = system: MLL5; details: MLL5, GST-tagged; arrays performed twice, n of 4
Description: as §1, §2, §3

[27] = system: TAF3; details: TAF3, GST-tagged; arrays performed twice, n of 4
Description: as §1, §2, §3

[28] = system: ING2; details: ING2, GST-tagged; arrays performed twice, n of 4
Description: as §1, §2, §3

[29] = system: CHD5 (PCC); details: CHD5 (PCC), GST-tagged; arrays performed twice, n of 4
Description: as §1, §2, §3

[30] = system: ING3; details: ING3, GST-tagged; arrays performed twice, n of 4
Description: as §1, §2, §3

Array Heatmap value (peptide array binding signal) [1]	Array Heatmap value (peptide array binding signal) [2]	Array Heatmap value (peptide array binding signal) [3]	Array Heatmap value (peptide array binding signal) [4]	Array Heatmap value (peptide array binding signal) [5]	Array Heatmap value (peptide array binding signal) [6]	Array Heatmap value (peptide array binding signal) [7]	Array Heatmap value (peptide array binding signal) [8]	Array Heatmap value (peptide array binding signal) [9]	Array Heatmap value (peptide array binding signal) [10]	Array Heatmap value (peptide array binding signal) [11]	Array Heatmap value (peptide array binding signal) [12]	Array Heatmap value (peptide array binding signal) [13]	Array Heatmap value (peptide array binding signal) [14]	Array Heatmap value (peptide array binding signal) [15]	Array Heatmap value (peptide array binding signal) [16]	Array Heatmap value (peptide array binding signal) [17]	Array Heatmap value (peptide array binding signal) [18]	Array Heatmap value (peptide array binding signal) [19]	Array Heatmap value (peptide array binding signal) [20]	Substance	also measured
0.5176	0.47	0.4351	0.5492	0.6284	0.6429	0.3492	0.4717	0.425	0.4687	0.4989	0.529	0.5182	0.2369	0.4767	0.3565	0.3784	0.4551	0.4892	0.5676	H4K16ac + K20ac: H4 1-23	Array Heatmap value (peptide array binding signal) [21]: 0.3563; Array Heatmap value (peptide array binding signal) [22]: 0.6126; Array Heatmap value (peptide array binding signal) [23]: 0.6637; Array Heatmap value (peptide array binding signal) [24]: 0.3738; Array Heatmap value (peptide array binding signal) [25]: 0.3611; Array Heatmap value (peptide array binding signal) [26]: 0.5457; Array Heatmap value (peptide array binding signal) [27]: 0.2987; Array Heatmap value (peptide array binding signal) [28]: 0.5955; Array Heatmap value (peptide array binding signal) [29]: 0.7957; Array Heatmap value (peptide array binding signal) [30]: 0.4609
0.4841	0.4992	0.4693	0.614	0.6251	0.7526	0.3768	0.546	0.5089	0.498	0.4821	0.5851	0.5595	0.271	0.5044	0.384	0.4096	0.4965	0.5459	0.6125	H4K8ac + K12ac + K16ac: H4 1-23	Array Heatmap value (peptide array binding signal) [21]: 0.383; Array Heatmap value (peptide array binding signal) [22]: 0.6695; Array Heatmap value (peptide array binding signal) [23]: 0.6365; Array Heatmap value (peptide array binding signal) [24]: 0.3996; Array Heatmap value (peptide array binding signal) [25]: 0.3961; Array Heatmap value (peptide array binding signal) [26]: 0.5342; Array Heatmap value (peptide array binding signal) [27]: 0.2999; Array Heatmap value (peptide array binding signal) [28]: 0.6214; Array Heatmap value (peptide array binding signal) [29]: 0.7879; Array Heatmap value (peptide array binding signal) [30]: 0.5255
0.4682	0.4603	0.5051	0.5726	0.6442	0.7167	0.35	0.5422	0.4441	0.4935	0.4984	0.5585	0.5446	0.2518	0.4789	0.3553	0.3674	0.4829	0.4976	0.619	H4K5me1 + K8me1 + K12me1: H4 1-23	Array Heatmap value (peptide array binding signal) [21]: 0.3587; Array Heatmap value (peptide array binding signal) [22]: 0.6372; Array Heatmap value (peptide array binding signal) [23]: 0.7329; Array Heatmap value (peptide array binding signal) [24]: 0.3716; Array Heatmap value (peptide array binding signal) [25]: 0.3655; Array Heatmap value (peptide array binding signal) [26]: 0.5583; Array Heatmap value (peptide array binding signal) [27]: 0.2856; Array Heatmap value (peptide array binding signal) [28]: 0.6061; Array Heatmap value (peptide array binding signal) [29]: 0.851; Array Heatmap value (peptide array binding signal) [30]: 0.4977
0.484	0.5155	0.5208	0.6446	0.6554	0.7637	0.3922	0.5298	0.4753	0.5302	0.545	0.5918	0.5865	0.2856	0.5171	0.3984	0.3878	0.5342	0.5634	0.615	H4S1p + K5ac + K8ac + K12ac + K16ac: H4 1-23	Array Heatmap value (peptide array binding signal) [21]: 0.3938; Array Heatmap value (peptide array binding signal) [22]: 0.677; Array Heatmap value (peptide array binding signal) [23]: 0.7325; Array Heatmap value (peptide array binding signal) [24]: 0.4113; Array Heatmap value (peptide array binding signal) [25]: 0.4228; Array Heatmap value (peptide array binding signal) [26]: 0.5849; Array Heatmap value (peptide array binding signal) [27]: 0.311; Array Heatmap value (peptide array binding signal) [28]: 0.6187; Array Heatmap value (peptide array binding signal) [29]: 0.835; Array Heatmap value (peptide array binding signal) [30]: 0.5554
